# Biological target: Tyrosine-protein kinase Lck (Homo sapiens, UniProt P06239)
# Test: Binding affinity against Lck SH2 domain
# Chain of Tyrosine-protein kinase Lck (P06239 whole entry, the tested form may be a part): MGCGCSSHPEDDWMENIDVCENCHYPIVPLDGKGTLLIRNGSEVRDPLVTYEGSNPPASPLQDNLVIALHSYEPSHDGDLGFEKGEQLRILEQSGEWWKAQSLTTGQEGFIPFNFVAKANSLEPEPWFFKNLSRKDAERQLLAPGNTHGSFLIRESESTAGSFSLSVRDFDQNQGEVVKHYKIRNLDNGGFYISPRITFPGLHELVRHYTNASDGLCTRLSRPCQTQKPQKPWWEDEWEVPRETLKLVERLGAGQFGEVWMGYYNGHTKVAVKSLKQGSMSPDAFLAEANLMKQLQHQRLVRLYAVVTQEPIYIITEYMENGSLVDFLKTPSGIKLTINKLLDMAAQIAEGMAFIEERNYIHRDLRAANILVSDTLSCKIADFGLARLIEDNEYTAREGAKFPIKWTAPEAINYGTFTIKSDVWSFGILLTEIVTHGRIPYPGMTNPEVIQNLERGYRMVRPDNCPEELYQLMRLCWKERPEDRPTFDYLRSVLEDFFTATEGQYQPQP
row,Kd,SMILES
1,200 µM,O=P(O)(O)Oc1cccc2ccccc12
2,1600 µM,Cc1nccn1C(=O)c1ccccc1C(=O)O
3,1000 µM,O=P(O)(O)Cc1cccc2ccccc12
4,200 µM,O=C(O)c1cc(C(=O)O)cc(C(=O)O)c1
5,300 µM,CCOC(=O)C(Cc1ccc(OP(=O)(O)O)cc1)NC(C)=O (stereo not given)
6,1700 µM,CCCN(CCC)C(=O)c1ccccc1C(=O)O
7,1300 µM,O=C(O)c1ccccc1C(=O)n1ccnc1
8,60 µM,Cc1cc(C)nc(NC(=O)c2cc(C(=O)O)c(C(=O)Nc3cc(C)cc(C)n3)cc2C(=O)O)c1

# Further lines, the molecule ahead of its results:
row,SMILES,Kd
1,NC(Cc1ccc(OP(=O)(O)O)cc1)C(=O)O (stereo not given),400 µM
2,O=P(O)(O)c1cccc2ccccc12,1500 µM
3,Cc1ccccc1CP(=O)(O)O,1000 µM
4,O=P(O)(O)Cc1ccccc1 [BENZYLPHOSPHONIC ACID],5900 µM
5,O=P(O)(O)Oc1ccccc1 [PHENYL DIHYDROGEN PHOSPHATE],300 µM
6,O=C(O)Cc1ccccc1 [PHENYLACETIC ACID],> 50000 µM
7,O=C(O)c1ccccc1C(=O)O [PHTHALIC ACID],1700 µM

# From ChEMBL document CHEMBL1132499, “NMR-based discovery of phosphotyrosine mimetics that bind to the Lck SH2 domain” (Bioorg Med Chem Lett, 1999)
